In test [1] the test system is ARCaP-Snail/MCF-7 Snail co-cultured with spleen macrophages. Kind of test: In vitro osteoclastogenesis assay (TRAP staining of mature osteoclasts). In kind it is cell-based, human. The conditions noted are these: vs untreated control. Here is the method:
We obtained MSKE from Dr Tamaro Hudson, our collaborator from Howard University and used it to perform osteoclastogenesis assay on prostate and breast cancer cell lines, including one in which Snail, a transcription factor, is overexpressed. 3×10^3 ARCaP-Neo/MCF-7 Neo or ARCaP-Snail/ MCF-7 Snail was co-cultured with 40×10^4 spleen macrophages in 48-well plates plus 1 ng/ml M-CSF plus or minus 5 μg/ml MSKE, 20 μg/ml MSKE, and 5 μM Z-FY-CHO CatL inhibitor.
The cells were fed every three days by replacing half the media with fresh media plus or minus MSKE or Z-FY-CHO. Macrophages alone were utilized as a negative control. After 7-14 days the cells were fixed with 3% formaldehyde and processed for TRAP staining according to manufacturer instructions, to visualize the formation of mature osteoclasts.
3×10^3 ARCaP-Neo/MCF-7 Neo or ARCaP-Snail/MCF-7 Snail was co-cultured with 40×10^4 spleen macrophages in 48-well plates plus 1 ng/ml M-CSF plus or minus 5 μg/mL MSKE, 20 μg/mL MSKE or […] Z-FY-CHO Cat L inhibitor. […]
3×10^3 or 1×10^3 prostate cancer cells overexpressing Snail (see FIG. 5) and breast cancer cells overexpressing Snail (FIG. 6) were co-cultured with 40×10^4 Macrophages for 14 days and treated with 50 ng/mL osteoprotogerin (control), 5 μM Z-FY-CHO, 5 μg/mL or 20 μg/ML MSKE. […] Osteoclasts were determined by having 3 or more nuclei (FIGS. 5 and 6 insets). […]

Test [2] concerns MCF-7 and ARCaP-E cells over expressing Snail. Kind of test: In vitro cell migration assay (collagen I transwell). In kind it is cell-based, human. The following applies: 5 μM Z-FY-CHO for 72 hours; migration 5 hours. The procedure:
We utilized Costar 24-well plates containing a polycarbonate filter insert with an 8-μm pore size, to coat with 4.46 μg/μl rat tail collagen I on the outside for 24 h at 4° C. 5×10^4 cells were plated in the upper chamber containing RPMI supplemented with 0.1% fetal bovine serum (FBS) while the lower chamber contained RPMI supplemented with 10% FBS. After 5 h, cells that migrated to the bottom of the insert were fixed, stained with 0.05% crystal violet, and counted to obtain the relative cell migration.
FIGS. 4A and 4B show MCF-7 and ARCaP-E cells over expressing Snail treated with 5 μg/mL, 20 μg/mL Muscadine Grape Skin Extract (MSKE) and 5 μM Z-FY-CHO for 72 hours. 5×10^4 cells were plated on transwell coated with Type-I collagen as described in the materials and methods section. The cells were allowed to migrate for 5 hours and then fixed and stained. The number of cells that migrated through the transwell membranes was determined by counting at least 4 random microscopic fields.

The target in a further test is T1, Cathepsin L (CatL) (Homo sapiens, UniProt P07711).
T1 construct: endogenous in cells; host or cells: conditioned media of ARCaP-E Snail, MCF-7 Snail and C4-2 cells
Description: Cathepsin gelatin zymography of conditioned media. The following applies: 5 μM Z-FY-CHO, 72 h; vs untreated control. It is filed as cell-based. The procedure: We also performed cathepsin zymography to detect cathepsin activity in untreated control and MSKE treatments. ARCaPE and MCF-7 cells over expressing Snail were treated with MSKE for 3 days using the condition media from the […]. With these steps we were able to detect higher CatL activity (enzymes hydrolyze the embedded substrate in situ, and proteolytic activity can be visualized as cleared bands) in cells overexpressing Snail as compared to Neo empty vector control cells.
We utilized the cathepsin zymography technique as previously described. Briefly, 1 mL of conditioned media (CM) containing 0.1 mM leupeptin was concentrated utilizing vivaspin tube (GE Health Care). The concentrated CM was diluted by adding […] of the sample to 45 μl of 1× RIPA buffer followed by determination of the protein concentration using BCA protein assay kit. […] Cathepsin activity was subsequently quantified using densitometry (NIH Image J). […]
(§1) The expression levels of Snail, mature CatL, STAT-3 and Phospho-STAT-3 (pstat-3) were determined with western blot. […] Mature Cathepsin L activity was determined by gelatin zymography. Cathepsin L activity was quantified with densitometry of each band on the gel. […]

The subject of a further test is p-STAT-3. Description: Western blot analysis, phospho-STAT-3. The following applies: 5 μM Z-FY-CHO, 72 h. In kind it is cell-based, human. Here is the method: (§2) We also performed Western blot analysis of whole cell lysates obtained from untreated control and MSKE treatments. ARCaPE and MCF-7 cells over expressing Snail were treated with MSKE for 3 days, and probed for Snail, phosph-STAT-3 (p-STAT3), and […] Western blot analysis.
(§3) Cells were lysed in a modified RIPA buffer (50 mM Tris pH 8.0, 150 mM NaCl, 0.02% NaN3, 0.1% SDS, 1% NP-40, 0.5% sodium deoxycholate) containing 1.5× protease inhibitor cocktail, 1 mM phenylmethylsufonyl fluoride (PMSF), and 1 mM sodium orthovanadate. Whole cell lysates were freeze-thawed at −80° C./4° C. for three cycles, then centrifuged at 13,000 rpm for 30 min at 4° C. Supernatants were collected and quantified using a micro BCA assay (Promega, Madison, Wis.). 40 μg of cell lysate was resolved using 10% SDS PAGE, followed by transblotting onto nitrocellulose membrane (Bio-Rad Laboratories, Hercules, Calif.). Membranes were blocked with 3% milk (TBS-T containing 3% milk), then washed and incubated with primary antibody dilution buffer. […]
as §1
(In general: In western blotting, separated proteins are transferred to a membrane and probed.)

Another test deals with mature CatL. Kind of test: Western blot analysis, mature CatL. The following applies: 5 μM Z-FY-CHO, 72 h. It is filed as cell-based, human. The procedure: as §2, §3, §1
Test [3] has as its system MCF-7 and ARCaP-E cells over expressing Snail. Description: In vitro cell invasion assay (Matrigel). In kind it is cell-based, human. The following applies: 5 μM Z-FY-CHO for 72 hours; invasion 24 hours. Here is the method:
The invasive properties of the cell lines were measured using the BD BioCoat Matrigel Invasion guidelines. Briefly, Boyden chamber inserts (Thermo Fisher Scientific, Waltham, Mass., USA) were coated with 40 μl 1:4 Matrigel and allowed to solidify at 37° C. for 1 h. 5×10^4 cells were seeded in triplicate in 0.1% FBS, while the lower chamber contained 10% FBS. Cells were allowed to invade through the porous membrane coated with Matrigel at 37° C. for 24-72 h. Inserts were fixed, stained with 0.05% crystal violet. Cell counts were performed for the determination of relative cell invasion.
FIGS. 4C and 4D represent cell invasion of the same cell lines. 5×10^4 cells were plated on transwells coated with Matrigel. Cell invasion was allowed to take place for 24 hours. The number of cells that invaded through the transwell membranes were determined by counting at least 4 random microscopic fields. Compared to neo empty vector cells overexpressing Snail represent an increase in migration and invasion. MSKE and Z-FY-CHO decrease migratory and invasive cells. Asterisks represent p-value of statistical significance (n=3, ***p<0.001, **p<0.01, *p<0.05). Values were normalized to untreated controls and the mean±SEM of data were obtained from three independent replicate experiments with at least three wells per treatment group in each individual replicate. Statistical analysis was done with Student t test.

Another test deals with Snail. Description: Western blot analysis, Snail. The conditions noted are these: 5 μM Z-FY-CHO, 72 h. In kind it is cell-based, human. Here is the method: as §2, §3, §1
The subject of a further test is rat bone cells. The conditions noted are these: by inhibiting collagen degradation; cited from earlier work.

Entries after “also recorded” stand apart in the source; their conditions may differ. Peptide text beside a SMILES is read from it. * marks the point of attachment. Cbz = O=C(OCc1ccccc1)*

T1 sequence (P07711 114-333): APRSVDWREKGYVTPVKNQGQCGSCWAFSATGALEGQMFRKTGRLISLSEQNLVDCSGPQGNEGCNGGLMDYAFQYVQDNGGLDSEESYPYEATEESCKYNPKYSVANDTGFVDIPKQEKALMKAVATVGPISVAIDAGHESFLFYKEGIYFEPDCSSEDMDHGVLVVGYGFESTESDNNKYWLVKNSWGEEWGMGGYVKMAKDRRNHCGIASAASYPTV

For the molecule `O=C[C@H](Cc1ccc(O)cc1)NC(=O)[C@H](Cc1ccccc1)NC(=O)OCc1ccccc1` [Z-FY-CHO] (Cbz-Phe-Tyr-aldehyde), the formation of osteoclasts entry in test [1] (5 μM Z-FY-CHO, prostate and breast cancer cells overexpressing Snail co-cultured with macrophages) is given as “significantly decrease; also recorded: significantly abrogated”. Further, the cell migration result in test [2] is listed as “abrogated; also recorded: decrease”. Also, the “amount of active CatL (CatL activity)” value at Cathepsin L (CatL) is given as “significantly decreased; also recorded: decrease”. The “STAT-3 activation (p-STAT-3)” value in the test with p-STAT-3 is recorded as “decrease”. For the same molecule, in the test on mature CatL, the “Cat L expression” value is recorded as “decrease”. Further, in test [3], the cell invasion result was “abrogated; also recorded: decrease”. Also, the Snail expression result with Snail is “decrease”. The bone resorption entry with rat bone cells is reported as “inhibit”.

B1: OPG: Osteoprotegerin, decoy receptor that binds RANKL; used as control in osteoclastogenesis assay (protein, UniProt O00300 22-401, looked up)
Tumor necrosis factor …: ETFPPKYLHYDEETSHQLLCDKCPPGTYLKQHCTAKWKTVCAPCPDHYYTDSWHTSDECLYCSPVCKELQYVKQECNRTHNRVCECKEGRYLEIEFCLKHRSCPPGFGVVQAGTPERNTVCKRCPDGFFSNETSSKAPCRKHTNCSVFGLLLTQKGNATHDNICSGNSESTQKCGIDVTLCEEAFFRFAVPTKFTPNWLSVLVDNLPGTKVNAESVERIKRQHSSQEQTFQLLKLWKHQNKDQDIVKKIIQDIDLCENSVQRHIGHANLTFEQLRSLMESLPGKKVGAEDIEKTIKACKPSDQILKLLSLWRIKNGDQDTLKGLMHALKHSKTYHFPKTVTQSLKKTIRFLHSFTMYKLYQKLFLEMIGNQVQSVKISCL
Regarding B1, in test [1] (50 ng/ml OPG), the formation of osteoclasts entry is listed as “significantly decreased”.

Values taken from patent US20160067298A1, “MUSCADINE GRAPE SKIN EXTRACT AS TREATMENT FOR BONE METASTATIC CANCER” (Clark Atlanta University, priority 2014, published 2016).
